Experimental findings from patent publication US20190167725A1, “COMPOSITION AND METHOD FOR IMPROVING EFFICACY OF STEM CELLS” (University-Industry Cooperation Group of Kyung Hee …, priority 2016, published 2019) are described below.

Assay [1] deals with ST2 cells (mouse bone marrow-derived MSCs). Particulars: 0 mM to 10 mM in lower chamber, 12 hours.
Procedure: The cells were maintained in RPMI1640 medium (Invitrogen) containing 10% FBS, 1% penicillin, and streptomycin (Invitrogen). The cells were cultured to a confluence of 80%, recovered with 0.25% trypsin/EDTA (Invitrogen), and subcultured in a ratio of 1:3 to 1:4. The cells which underwent 5 to 8 subcultures were used in the experiment. The cells were maintained in a 37° C. incubator containing 5% CO2.
Millicell culture plate inserts with a pore size of 8 μm (EMD Millipore) were coated with type I collagen (0.5 μg/mL). The ST2 cells (2.5×10^4 cells) were suspended in normal growth medium and added into an upper chamber. After culturing the cells for 5 to 6 hours, the medium was replaced with DMEM medium containing 2% FBS and 1% penicillin and streptomycin.
After culturing for an additional 12 hours, each insert was fixed with 4% formaldehyde in the presence of PBS at room temperature for 10 minutes. The ST2 cells were stained with a hematoxylin solution for 30 minutes, and the cells remaining on the upper chamber membrane were removed using cotton swabs. The lower chamber membrane was confirmed using the Nikon ECLIPSE TS 100 microscope. The number of cells in each cell image was counted using Adobe Photoshop CS6.
Assay [2] concerns human bone marrow-derived MSCs (hMSCs). Particulars: concentration series, serum-free DMEM. From the text: The human bone marrow-derived MSCs (hMSCs) were obtained from Lonza (Basel, Switzerland) and cultured in MSCGM medium (Lonza). Cells which underwent 3 to 6 subcultures were used in the experiment.
In assay [3] the test system is hematopoietic progenitor cells (Lin-/Sca1+/c-Kit+, LSK). Particulars: sodium acetate 4 nmol/kg subcutaneous, blood collected after 10 minutes, vs normal control group.
Procedure: Populations of circulating hematopoietic progenitor cells (HPCs), lineage negative, Sca-1 positive, and c-Kit positive (Lin^−/Sca1^+/c-Kit^+, LSK) cells were analyzed by a flow cytometry analyzer.
Monocytes were separated by Ficoll centrifugation. Then, hematopoietic progenitor cells were examined using anti-mouse CD4-FITC (Biolegend, San Diego, Calif.), anti-mouse CD49b-FITC (Biolegend), anti-mouse CD11b-FITC (Biolegend), anti-mouse B220-FITC (Biolegend), anti-mouse Gr-1-FITC (Biolegend), anti-mouse CD8-FITC (Biolegend), anti-mouse Ly-6A/E (Sca-1)-PE (Biolegend), and anti-mouse CD117 (c-Kit)-APC (Biolegend).
Assay [4] has as its system human bone marrow-derived MSCs (hMSCs). The note with it: 10 mM, two subcultures, 14 days culture, colonies 3 mm or greater.
Procedure: Then, the cells were added at a concentration of 5×10^2 cells/well (10 cm dish) to low-glucose DMEM (GE Healthcare Life Sciences) containing 10% FBS, 1% penicillin and streptomycin (Invitrogen), and 1% L-glutamine in a plate, and the plate was incubated under conditions of 37° C. and 5% CO2 for 14 days. The plate was then fixed with 100% methanol, stained with a 1% crystal violet staining solution (Sigma-Aldrich), and the number of colonies was counted under a stereomicroscope. In particular, cell populations of human bone marrow-derived MSCs with a diameter of 3 mm or greater were considered as colonies.
The test system of assay [5] is ST2 cells (mouse bone marrow-derived MSCs). The note with it: 10 mM, 12 hours, growth factor reduced Matrigel. The method, then:
Then, the upper part of each insert was coated with 50 μL of growth factor reduced Matrigel (BD Bioscience). […] The lower chamber membrane was confirmed using a Nikon ECLIPSE TS 100 microscope.

A further assay deals with IL-10. The note with it: 10 mM, 48 hours, ST2 cells, vs untreated control (CON). The method, then:
(§1) ST2 cells (3.8×10^5 cells) were added to a 6-well plate under the condition of normal growth medium and cultured overnight. The medium was replaced with low-glucose DMEM medium without FBS and the cells were cultured for 18 hours. Then, the cells were treated with 10 mM sodium acetate (C2) for 48 hours or not treated (CON).
(§2) A cell lysate was obtained from the sample, and total RNA was isolated using TRIzol. The cDNA was synthesized from the total RNA, and the expression levels of mRNAs of VEGF and IL-10 in cells were measured by real-time PCR using primers for VEGF and IL-10 and SYBR green PCR Master Mix (fluorescent material).

The test system of the next assay is VEGF. The note with it: 10 mM, 48 hours, ST2 cells, vs untreated control (CON). The method, then:
as §1, §2

Assay [6] relates to mouse bone marrow-derived MSCs. The note with it: 200 mM in drinking water for 7 days, vs drinking water without sodium acetate. The procedure:
Each C57BL/6 mouse was fed drinking water with or without sodium acetate (200 mM) for 7 days, and femurs were collected from each mouse. The collected femurs were crushed using a mortar, treated with 0.2% type I collagenase (Worthington), and thereby the bone marrow cells attached to the bones were collected.

Assay [7] relates to ST2 cells (mouse bone marrow-derived MSCs). The note with it: 10 mM, 36 hours treatment, 10 days culture, colonies 1 mm or greater.
Procedure: Then, the cells were added to a plate at a concentration of 5.7×10^4 cells/well and cultured under conditions of 37° C. and 5% CO2 for 10 days. The plate was then stained with a 1% crystal violet staining solution (Sigma-Aldrich) and the number of colonies was counted under a stereomicroscope. In particular, cell populations with a diameter of 1 mm or greater were considered as colonies.

For the compound `CCCC(=O)[O-].[Na+]` [sodium butyrate], in [1], the “mobility of ST2 cells (number of migrated cells)” value (shortened to “mobility of ST2 cells”) is “increase in a manner dependent on the concentrations”.

Take `CC(=O)[O-].[Na+]` [sodium acetate]: the “mobility of human bone marrow-derived MSCs (hMSCs)” value in assay [2] was “increased in a manner dependent on the concentration”. In addition, the “hematopoietic progenitor cells (LSK) in the peripheral blood” value in assay [3] is reported as “enhancement of mobility from the bone marrow to the peripheral blood”. In [1], the “mobility of ST2 cells” value is recorded as “increase in a manner dependent on the concentration”. In assay [4], the “enhancement of colony-forming ability (CFU-F) of hMSCs” value is “about 5 fold”. Moreover, the “invasion (number of cells through Matrigel)” value in [5] is “significantly increased”. The “increase of expression of IL-10 mRNA” value in the assay with IL-10 is recorded as “about 2.4 fold”. For the same compound, the “increase of expression of VEGF mRNA” value with VEGF is recorded as “about 2.5 fold”. In assay [6], the “increase in frequency of cell population of mouse bone marrow-derived MSCs (CFU-F)” value is reported as “about 2 fold” and the “increase in size of cell population of mouse bone marrow-derived MSCs (CFU-F)” value is “about 2 fold”. The “colony-forming ability (CFU-F) of mouse bone marrow-derived MSCs” value in assay [7] is listed as “significantly increased”.

Consider `CCC(=O)[O-].[Na+]` [sodium propionate], for which, in assay [1], the “mobility of ST2 cells” value is given as “increase in a manner dependent on the concentrations”. Moreover, in assay [7], the “colony-forming ability (CFU-F) of mouse bone marrow-derived MSCs” value is reported as “enhancement of a CFU-F-forming ability”.
